Data from the supplement of paper PMC8253809.

Columns and labels:
[1] = test system: DIPGX9 (diffuse intrinsic pontine glioma line); assay: area under dose-response curve of % growth inhibition (log2 RLU vs DMSO / staurosporine), 1e-11 to 1e-4 M (% x log10 M); higher = more growth inhibition
Procedure, shortened: (§1)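 Patient-derived pHGG/DIPG cell lines and astrocyte controls were grown on 1% Geltrex-coated 384-well plates and exposed to a 10-point threefold dilution series (mean top concentration 35 μM), in triplicate. Exposure was 7 days (iAstro 3 days) at 37 °C, 5% CO2. CellTiter-Glo luminescence was log2-transformed and normalised per plate to % activity between solvent and positive controls. Area under the curve was taken by trapezoid rule from the fitted log-logistic curve, or from a smoothing spline when the sigmoid fit failed.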

[2] = test system: iAstro (astrocyte control); assay: as above
Procedure, shortened: as §1

[3] = test system: SUDIPGXIII (diffuse intrinsic pontine glioma line); assay: as above
Procedure, shortened: as §1

[4] = test system: DIPGX29 (H3.3 K27M diffuse intrinsic pontine glioma line); assay: as above
Procedure, shortened: as §1

[5] = test system: DIPGX37 (H3.3 K27M diffuse intrinsic pontine glioma line); assay: as above
Procedure, shortened: as §1

[6] = test system: DIPGX7 (H3.3 K27M diffuse intrinsic pontine glioma line); assay: as above
Procedure, shortened: as §1

[7] = test system: SUDIPGXIX (diffuse intrinsic pontine glioma line); assay: as above
Procedure, shortened: as §1

[8] = test system: SUDIPGVI (diffuse intrinsic pontine glioma line); assay: as above
Procedure, shortened: as §1

[9] = test system: HGGX6 (H3.3 G34R paediatric high-grade glioma line); assay: as above
Procedure, shortened: as §1

[10] = test system: SUDIPGIV (diffuse intrinsic pontine glioma line); assay: as above
Procedure, shortened: as §1

[11] = test system: SUDIPGXVII (diffuse intrinsic pontine glioma line); assay: as above
Procedure, shortened: as §1

[12] = test system: SUDIPGXXI (diffuse intrinsic pontine glioma line); assay: as above
Procedure, shortened: as §1

[13] = test system: HGGX39 (paediatric high-grade glioma line); assay: as above
Procedure, shortened: as §1

[14] = test system: HGGX2 (paediatric high-grade glioma line); assay: as above
Procedure, shortened: as §1

[15] = test system: HABS (astrocyte control); assay: as above
Procedure, shortened: as §1

[16] = test system: HGGX42 (H3.3 G34R paediatric high-grade glioma line); assay: as above
Procedure, shortened: as §1

[17] = test system: DIPGX9; assay: maximal growth inhibition (yFin) relative to DMSO / staurosporine; higher = more efficacious
Procedure, shortened: (§2)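 Patient-derived pHGG/DIPG cell lines and astrocyte controls were plated in 384-well plates coated with 1% Geltrex and dosed by pin tool with a 10-point threefold dilution series (mean top concentration 35 μM), in triplicate. Cells were exposed for 7 days (3 days for iAstro) at 37 °C and 5% CO2. CellTiter-Glo luminescence was log2-transformed, normalised per plate to % activity between negative (solvent) and positive control wells, and pooled. EC50 and maximal response (yFin) were taken from whichever three- or four-parameter log-logistic fit had the lowest AICc.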

[18] = test system: iAstro; assay: as above
Procedure, shortened: as §2

[19] = test system: SUDIPGXIII; assay: as above
Procedure, shortened: as §2

[20] = test system: DIPGX29; assay: as above
Procedure, shortened: as §2

[21] = test system: DIPGX37; assay: as above
Procedure, shortened: as §2

[22] = test system: DIPGX7; assay: as above
Procedure, shortened: as §2

[23] = test system: SUDIPGXIX; assay: as above
Procedure, shortened: as §2

[24] = test system: SUDIPGVI; assay: as above
Procedure, shortened: as §2

[25] = test system: SUDIPGIV; assay: as above
Procedure, shortened: as §2

[26] = test system: SUDIPGXXI; assay: as above
Procedure, shortened: as §2

[27] = test system: HGGX39; assay: as above
Procedure, shortened: as §2

[28] = test system: HGGX2; assay: as above
Procedure, shortened: as §2

[29] = test system: HGGX42; assay: as above
Procedure, shortened: as §2

## CN(C)C/C=C/C(=O)Nc1ccc(C(=O)Nc2cccc(Nc3ncc(Cl)c(-c4c[nH]c5ccccc45)n3)c2)cc1 [THZ1]
[1]
  area under dose-response curve: 372
[2]
  area under dose-response curve: 186
[3]
  area under dose-response curve: 308
[4]
  area under dose-response curve: 301
[5]
  area under dose-response curve: 302
[6]
  area under dose-response curve: 356
[7]
  area under dose-response curve: 343
[8]
  area under dose-response curve: 345
[9]
  area under dose-response curve: 267
[10]
  area under dose-response curve: 342
[11]
  area under dose-response curve: 329
[12]
  area under dose-response curve: 460
[13]
  area under dose-response curve: 272
[14]
  area under dose-response curve: 349
[15]
  area under dose-response curve: 284
[16]
  area under dose-response curve: 360
[17]
  maximal growth inhibition: 88.7%
[18]
  maximal growth inhibition: 99.1%
[19]
  maximal growth inhibition: 85%
[20]
  maximal growth inhibition: 87.4%
[21]
  maximal growth inhibition: 81.3%
[22]
  maximal growth inhibition: 88.6%
[23]
  maximal growth inhibition: 84.4%
[24]
  maximal growth inhibition: 85.3%
[25]
  maximal growth inhibition: 87.4%
[26]
  maximal growth inhibition: 107%
[27]
  maximal growth inhibition: 86.2%
[28]
  maximal growth inhibition: 97.5%
[29]
  maximal growth inhibition: 110%
